A short description of data set [1]: Solubility in water, Shake Flask Method (OECD Guideline 105). The format is physicochemical. The conditions noted are these: 20° C., buffered at pH 7, Shake Flask Method (OECD Guideline 105). The protocol:
The following solubilities were measured in water, 20° C., buffered at pH 7, using the Shake Flask Method (OECD Guideline 105): […]

For data set [2] the following is noted: at room temperature; cited from earlier work.

The values that follow come from patent US9290461B2, “Crystalline modifications of prothioconazole” (ADAMA MAKHTESHIM LTD, priority 2008, dated 2016).

In data set [1], `OC(Cc1ccccc1Cl)(Cn1nc[nH]c1=S)C1(Cl)CC1` (racemic) [Form I, 2-[(2RS)-2-(1-chlorocyclopropyl)-3-(2-chlorophenyl)-2-hydroxypropyl]-2H-1,2,4-triazole-3(4H)-thione] returned a solubility in water of 28 ppm. Further, the “thermodynamic stability of the crystalline form” value in data set [2] is “metastable at room temperature”.
Compound `OC(Cc1ccccc1Cl)(Cn1nc[nH]c1=S)C1(Cl)CC1` (stereo not drawn) [Amorphous, prothioconazole] returned a solubility in water in data set [1] of 34 ppm.
In the case of `OC(Cc1ccccc1Cl)(Cn1nc[nH]c1=S)C1(Cl)CC1` (racemic) [Form II, 2-[(2RS)-2-(1-chlorocyclopropyl)-3-(2-chlorophenyl)-2-hydroxypropyl]-2H-1,2,4-triazole-3(4H)-thione], the solubility in water in data set [1] is reported as 15 ppm. For the same compound, the “thermodynamic stability of the crystalline form” value in data set [2] is “thermodynamically stable at room temperature”.
Turning to `OC(Cc1ccccc1Cl)(Cn1nc[nH]c1=S)C1(Cl)CC1` (stereo not drawn) [DMSO Solvate, prothioconazole], in data set [1], the solubility in water was determined as 30 ppm.
